The compounds below were run against T1, recombinant human Myt1 (full length PKMYT1) (Homo sapiens, UniProt Q99640) (assay: ADP-Glo assay (Myt1 kinase activity)).
T1 sequence (Q99640 1-499): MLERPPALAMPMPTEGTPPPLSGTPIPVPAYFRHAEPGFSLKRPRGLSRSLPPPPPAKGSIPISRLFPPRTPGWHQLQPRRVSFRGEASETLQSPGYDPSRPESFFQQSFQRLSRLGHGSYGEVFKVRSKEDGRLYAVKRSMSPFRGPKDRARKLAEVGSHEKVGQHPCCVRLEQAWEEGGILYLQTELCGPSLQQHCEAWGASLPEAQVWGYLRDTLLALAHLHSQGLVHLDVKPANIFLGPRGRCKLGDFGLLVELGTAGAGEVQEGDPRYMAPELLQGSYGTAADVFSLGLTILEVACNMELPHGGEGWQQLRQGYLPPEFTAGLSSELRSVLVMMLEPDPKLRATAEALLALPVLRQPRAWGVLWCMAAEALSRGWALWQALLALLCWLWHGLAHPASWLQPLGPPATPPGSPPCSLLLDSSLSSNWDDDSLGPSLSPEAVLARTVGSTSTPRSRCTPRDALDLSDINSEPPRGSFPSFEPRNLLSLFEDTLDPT
`Cc1cc2[nH]c(=O)c(N)c(-c3ccc(F)c4[nH]ncc34)c2nc1N1CCC(O)C1` (stereo not drawn) [Example 24, 3-Amino-4-(7-fluoro-1H-indazol-4-yl)-6-(3-hydroxypyrrolidin-1-yl)-7-methyl-1H-1,5-naphthyridin-2-one] showed an IC50 of 15.6 nM.
With `Nc1c(-c2ccc(F)c3[nH]ncc23)c2ncc(-c3nccs3)cc2[nH]c1=O` [Example 16, 3-Amino-4-(7-fluoro-1H-indazol-4-yl)-7-thiazol-2-yl-1H-1,5-naphthyridin-2-one] the IC50 was 11.3 nM.
`Cc1cc(C#CC(C)(C)O)nc2c(-c3ccc(F)c4[nH]ncc34)c(N)c(=O)[nH]c12` [Example 148, 3-Amino-4-(7-fluoro-1H-indazol-4-yl)-6-(3-hydroxy-3-methyl-but-1-ynyl)-8-methyl-1H-1,5-naphthyridin-2-one] was tested, and the IC50 was < 10 nM.
With `Nc1c(-c2ccc(F)c3[nH]ncc23)c2ncc(-c3ccns3)cc2[nH]c1=O` [Example 10, 3-Amino-4-(7-fluoro-1H-indazol-4-yl)-7-isothiazol-5-yl-1H-1,5-naphthyridin-2-one] the IC50 was 42.9 nM.
`COc1c(C)nc(C)c2[nH]c(=O)c(N)c(-c3ccc(F)c4[nH]ncc34)c12` [Example 174, 3-Amino-4-(7-fluoro-1H-indazol-4-yl)-5-methoxy-6,8-dimethyl-1H-1,7-naphthyridin-2-one] showed an IC50 of 12.7 nM.
With `COCc1cnc(C)c2[nH]c(=O)c(N)c(-c3ccc(F)c4[nH]ncc34)c12` [Example 193, 3-Amino-4-(7-fluoro-1H-indazol-4-yl)-5-(methoxymethyl)-8-methyl-1H-1,7-naphthyridin-2-one] the IC50 was 33.3 nM.
With `Cc1ncc(OC2CCC2)c2c(-c3ccc(F)c4[nH]ncc34)c(N)c(=O)[nH]c12` [Example 189, 3-Amino-5-(cyclobutoxy)-4-(7-fluoro-1H-indazol-4-yl)-8-methyl-1H-1,7-naphthyridin-2-one] the IC50 was 10.6 nM.
For `Cc1cc2[nH]c(=O)c(N)c(-c3ccc(F)c4[nH]ncc34)c2cc1C` [Example 48, 3-Amino-4-(7-fluoro-1H-indazol-4-yl)-6,7-dimethyl-1H-quinolin-2-one], the IC50 was 27.1 nM.
Work on `Cc1cc2[nH]c(=O)c(N)c(-c3ccc(F)c4[nH]ncc34)c2cc1N1CC2(COC2)C1` [Example 105, 3-Amino-4-(7-fluoro-1H-indazol-4-yl)-7-methyl-6-(2-oxa-6-azaspiro[3.3]heptan-6-yl)-1H-quinolin-2-one] yielded an IC50 of 18.5 nM.
`Nc1c(-c2ccc(F)c3[nH]ncc23)c2c(OCc3ccccc3)cnc(Cl)c2[nH]c1=O` [Example 180, 3-Amino-5-benzyloxy-8-chloro-4-(7-fluoro-1H-indazol-4-yl)-1H-1,7-naphthyridin-2-one] was tested, and the IC50 was 22.6 nM.
`Cc1ncc(F)c2c(-c3ccc(F)c4[nH]ncc34)c(N)c(=O)[nH]c12` [Example 179, 3-Amino-5-fluoro-4-(7-fluoro-1H-indazol-4-yl)-8-methyl-1H-1,7-naphthyridin-2-one] was tested, and the IC50 was 12.5 nM.
For `Nc1c(-c2cccc3[nH]ncc23)c2ncc(-c3nccs3)cc2[nH]c1=O` [Example 35, 3-Amino-4-(1H-indazol-4-yl)-7-thiazol-2-yl-1H-1,5-naphthyridin-2-one], the IC50 was 25.6 nM.
With `Cn1cncc1-c1cnc2c(-c3ccc(F)c4[nH]ncc34)c(N)c(=O)[nH]c2c1` [Example 8, 3-Amino-4-(7-fluoro-1H-indazol-4-yl)-7-(3-methylimidazol-4-yl)-1H-1,5-naphthyridin-2-one] the IC50 was 11.6 nM.
For `Cc1cc2[nH]c(=O)c(N)c(-c3ccc(F)c4[nH]ncc34)c2nc1N1CC2CC1CN2C` (stereo not drawn) [Example 30, 3-Amino-4-(7-fluoro-1H-indazol-4-yl)-7-methyl-6-(5-methyl-2,5-diazabicyclo[2.2.1]heptan-2-yl)-1H-1,5-naphthyridin-2-one], the IC50 was 15.3 nM.
`Cc1cc2[nH]c(=O)c(N)c(-c3ccc(F)c4[nH]ncc34)c2nc1OC(F)F` [Example 062, 3-Amino-6-(difluoromethoxy)-4-(7-fluoro-1H-indazol-4-yl)-7-methyl-1H-1,5-naphthyridin-2-one] was tested, and the IC50 was 14.6 nM.
For `Cc1c(C2(C)CC2)cnc2c(-c3ccc(F)c4[nH]ncc34)c(N)c(=O)[nH]c12` [Example 129, 3-Amino-4-(7-fluoro-1H-indazol-4-yl)-8-methyl-7-(1-methylcyclopropyl)-1H-1,5-naphthyridin-2-one], the IC50 was 12.8 nM.
In the case of `Cc1cc2[nH]c(=O)c(N)c(-c3ccc(F)c4[nH]ncc34)c2nc1O[C@H]1C[C@H](F)C1` [Example 080, trans-3-Amino-6-(3-fluorocyclobutoxy)-4-(7-fluoro-1H-indazol-4-yl)-7-methyl-1H-1,5-naphthyridin-2-one], the IC50 is reported as 21.1 nM.
`CC(=O)c1nc2c(-c3ccc(F)c4[nH]ncc34)c(N)c(=O)[nH]c2c(Cl)c1C` [Example 112, 6-Acetyl-3-amino-8-chloro-4-(7-fluoro-1H-indazol-4-yl)-7-methyl-1H-1,5-naphthyridin-2-one] was tested, and the IC50 was < 10 nM.
`Cc1cc2[nH]c(=O)c(N)c(-c3ccc(F)c4[nH]ncc34)c2nc1N1CCN(C(C)C)CC1` [Example 28, 3-Amino-4-(7-fluoro-1H-indazol-4-yl)-6-(4-isopropylpiperazin-1-yl)-7-methyl-1H-1,5-naphthyridin-2-one] showed an IC50 of 29.1 nM.
`Cc1c(Br)nc2c(-c3ccc(F)c4[nH]ncc34)c(N)c(=O)[nH]c2c1Cl` [Example 108, 3-Amino-6-bromo-8-chloro-4-(7-fluoro-1H-indazol-4-yl)-7-methyl-1H-1,5-naphthyridin-2-one] showed an IC50 of 15.1 nM.
With `Nc1c(-c2cccc3[nH]ncc23)c2ncc(C3CC3)cc2[nH]c1=O` [Example 34, 3-Amino-7-cyclopropyl-4-(1H-indazol-4-yl)-1H-1,5-naphthyridin-2-one] the IC50 was 19.3 nM.
`Cc1ncc(C)c2c(-c3ccc(F)c4[nH]ncc34)c(N)c(=O)[nH]c12` [Example 177, 3-Amino-4-(7-fluoro-1H-indazol-4-yl)-5,8-dimethyl-1H-1,7-naphthyridin-2-one] was tested, and the IC50 was 13.9 nM.
Work on `Cc1cc2[nH]c(=O)c(N)c(-c3ccc(F)c4[nH]ncc34)c2nc1OC1CCC1` [Example 46, 3-Amino-6-(cyclobutoxy)-4-(7-fluoro-1H-indazol-4-yl)-7-methyl-1H-1,5-naphthyridin-2-one] yielded an IC50 of 10.6 nM.
For `Cc1cc2[nH]c(=O)c(N)c(-c3ccc(F)c4[nH]ncc34)c2nc1OCC12CC(C1)C2` [Example 063, 3-Amino-6-(1-bicyclo[1.1.1]pentanylmethoxy)-4-(7-fluoro-1H-indazol-4-yl)-7-methyl-1H-1,5-naphthyridin-2-one], the IC50 was 9.7 nM.
For `Nc1c(-c2ccc(F)c3[nH]ncc23)c2ncc(F)cc2[nH]c1=O` [Example 4], the IC50 was 48.1 nM.
`Cc1cc2[nH]c(=O)c(N)c(-c3ccc(F)c4[nH]ncc34)c2nc1NC(C)C` [Example 23, 3-Amino-4-(7-fluoro-1H-indazol-4-yl)-6-(isopropylamino)-7-methyl-1H-1,5-naphthyridin-2-one] showed an IC50 of 10.7 nM.
`Cc1c(-c2nccs2)cnc2c(-c3ccc(F)c4[nH]ncc34)c(N)c(=O)[nH]c12` [Example 121, 3-Amino-4-(7-fluoro-1H-indazol-4-yl)-8-methyl-7-thiazol-2-yl-1H-1,5-naphthyridin-2-one] showed an IC50 of 10.7 nM.
`Cc1cc2[nH]c(=O)c(N)c(-c3ccc(F)c4[nH]ncc34)c2nc1OCC(F)F` [Example 059, 3-Amino-6-(2,2-difluoroethoxy)-4-(7-fluoro-1H-indazol-4-yl)-7-methyl-1H-1,5-naphthyridin-2-one] was tested, and the IC50 was < 10 nM.
`Nc1c(-c2cc(F)cc3[nH]ncc23)c2ncc(Cl)cc2[nH]c1=O` [Example 36, 3-Amino-7-chloro-4-(6-fluoro-1H-indazol-4-yl)-1H-1,5-naphthyridin-2-one] gave an IC50 of 37.8 nM.
`Cc1cc2[nH]c(=O)c(N)c(-c3ccc(F)c4[nH]ncc34)c2nc1OCCN(C)C` [Example 068, 3-Amino-6-[2-(dimethylamino)ethoxy]-4-(7-fluoro-1H-indazol-4-yl)-7-methyl-1H-1,5-naphthyridin-2-one] was tested, and the IC50 was 17.5 nM.
In the case of `Cc1cc(C#CC2COC2)nc2c(-c3ccc(F)c4[nH]ncc34)c(N)c(=O)[nH]c12` [Example 150, 3-Amino-4-(7-fluoro-1H-indazol-4-yl)-8-methyl-6-[2-(oxetan-3-yl)ethynyl]-1H-1,5-naphthyridin-2-one], the IC50 is reported as 15.2 nM.
For `Cc1cc2[nH]c(=O)c(N)c(-c3ccc(F)c4[nH]ncc34)c2nc1OCCC(F)F` [Example 081, 3-Amino-6-(3,3-difluoropropoxy)-4-(7-fluoro-1H-indazol-4-yl)-7-methyl-1H-1,5-naphthyridin-2-one], the IC50 was 14.6 nM.
In the case of `Cc1cc2[nH]c(=O)c(N)c(-c3ccc(F)c4[nH]ncc34)c2nc1N1CCNCC1` [Example 44, 3-Amino-4-(7-fluoro-1H-indazol-4-yl)-7-methyl-6-piperazin-1-yl-1H-1,5-naphthyridin-2-one], the IC50 is reported as < 10 nM.
`Cc1ncc(OCC2CC2)c2c(-c3ccc(F)c4[nH]ncc34)c(N)c(=O)[nH]c12` [Example 191, 3-Amino-5-(cyclopropylmethoxy)-4-(7-fluoro-1H-indazol-4-yl)-8-methyl-1H-1,7-naphthyridin-2-one] showed an IC50 of 15.7 nM.
`COC(C)(C)C#Cc1nc2c(-c3ccc(F)c4[nH]ncc34)c(N)c(=O)[nH]c2cc1C` [Example 072, 3-Amino-4-(7-fluoro-1H-indazol-4-yl)-6-(3-methoxy-3-methyl-but-1-ynyl)-7-methyl-1H-1,5-naphthyridin-2-one] showed an IC50 of 11.2 nM.
`Cc1c(OC(C)C)cnc2c(-c3ccc(F)c4[nH]ncc34)c(N)c(=O)[nH]c12` [Example 138, 3-Amino-4-(7-fluoro-1H-indazol-4-yl)-7-isopropoxy-8-methyl-1H-1,5-naphthyridin-2-one] showed an IC50 of 14.2 nM.

Reference: patent US20260078122A1, “INDAZOLE COMPOUNDS AS PKMYT1 KINASE INHIBITORS” (Hoffmann-La Roche Inc., priority 2023, published 2026)
